Data set [1] is described as follows: Analysis of luciferase siRNA-encapsulated lipid nanoparticle (Production Example 1). Type of data set: physicochemical. The text has this:
The particle size of the lipid particle (in the composition) can be measured by a known approach. For example, the particle size can be calculated as a Z-average particle size by the cumulant analysis of an autocorrelation function using a particle size measurement apparatus Zetasizer Nano ZS (Malvern Instruments) based on a dynamic light scattering measurement technique. The particle size (average particle size) of the lipid particle (in the composition) is, for example, 10 to 200 nm, preferably 60 to 170 nm.
The concentration and rate of encapsulation of the nucleic acid (e.g., siRNA or mRNA) in the composition of the present invention can be measured by a known approach. For example, the nucleic acid is fluorescently labeled using Quant-iT™ RiboGreen® (Invitrogen Corp.), and the fluorescence intensity can be measured to determine the concentration and the rate of encapsulation. The concentration of the nucleic acid in the composition can be calculated using a calibration curve prepared from aqueous nucleic acid solutions having known concentrations. The rate of encapsulation can be calculated on the basis of the difference in fluorescence intensity between the presence and absence of addition of Triton-X 100 (surfactant for disrupting the lipid particle). The concentration of the nucleic acid in the composition refers to the total concentration of a nucleic acid encapsulated in the lipid particle and an unencapsulated nucleic acid. The rate of encapsulation refers to the ratio of the nucleic acid encapsulated in the lipid particle to all nucleic acids in the composition.
A lipid mixture (cationic lipid:DPPC:cholesterol:GS-020=60:10.6:28:1.4, molar ratio) was dissolved in 90% of EtOH and 10% of a 25 mM acetate buffer solution (pH 4.0) to obtain a 7.4 mg/ml lipid solution. Luciferase (luc) siRNA (see Table 2) was dissolved in a 25 mM acetate buffer solution (pH 4.0) to obtain a 0.15 mg/ml nucleic acid solution. The obtained lipid solution and nucleic acid solution were mixed at a flow rate ratio of 1 ml/min:5 ml/min at room temperature using Asia microfluidic system (Syrris Ltd.) to obtain a dispersion containing a composition. The obtained dispersion was dialyzed against water at room temperature for 1 hour and against PBS at room temperature for 18 hours using Slyde-A-Lyzer (molecular weight cutoff: 20 K, Thermo Fischer Scientific Inc.). Subsequently, the dialysate was filtered through a 0.2 μm syringe filter (Iwaki) and preserved at 4° C. Hereinafter, the particle size of the lipid particle in the composition was calculated as a Z-average particle size by the cumulant analysis of an autocorrelation function using a particle size measurement apparatus Zetasizer Nano ZS (Malvern Instruments) based on a dynamic light scattering measurement technique.

The test system of data set [2] is human liver cancer-derived cell line Hep3B stably expressing luciferase. The experiment in a line: Transfection of cultured cell with siRNA (luciferase knockdown). Type of data set: cell-based. The note with it: lipid particle containing luciferase siRNA, 48 hours after addition, read-out: siRNA concentration necessary for 50% knockdown. How it is done: A human liver cancer-derived cell line Hep3B stably expressing luciferase was cultured at a cell density of 6000 cells/well in a 96-well plate. 24 hours later, 10 μl of the lipid particle containing luciferase siRNA was added to the medium. 48 hours after the addition of siRNA, the amount of decrease in expression (knockdown) of luciferase was measured using Picagene LT2.0 kit (Toyobo Co., Ltd.).

Turning to `CCCCCCCC(=O)OCC(COC(=O)CCCCCCC)(COC(=O)CCCCN(C)C)COC(=O)C(CCCCCC)CCCCCC` [Example 3, 2-(((5-(Dimethylamino)pentanoyl)oxy)methyl)-2-(((2-hexyloctanoyl)oxy)methyl)propane-1,3-diyl dioctanoate], the Rate of encapsulation in data set [1] (luc siRNA lipid nanoparticle) stood at 96%. Further, the siRNA concentration in data set [1] (luc siRNA lipid nanoparticle dispersion after dialysis and filtration) is 445 µg/mL. Further, in data set [1] (luc siRNA lipid nanoparticle, cationic lipid:DPPC:cholesterol:GS-020=60:10.6:28:1.4, Z-average, dynamic light scattering), the Average particle size is on record as 81 nm. Besides, the IC50 in data set [2] amounted to 55 nM.

The values above are taken from US12479791B2, “Cationic lipid” (Takeda Pharmaceutical Company Limited, priority 2018, dated 2025).
